Laboratory results taken from patent publication US11492667B2, “Compositions and methods for detecting molecular targets on chromosomal DNA” (New England Biolabs, Inc., priority 2020, dated 2022).

B1: Protein G-gHNH: NEFP: Protein G fused via linker to gHNH nicking endonuclease, SEQ ID NO: 5 (protein)
chain: MKGETTTEAVDAATAEKVFKQYANDNGVDGEWTYDDATKTFTVTEKPEVIDASELTPAVTTYKLVINGKTLKGETTTEAVDAATAEKVFKQYANDNGVDGEWTYDDATKTFTVTEKPEVIDASELTPAVTTYKLVINGKTLKGETTTKAVDAETAEKAFKQYANDNGVDGVWTYDDATKTFTVTEGSATIVKKPLRPCCEFHCYNLTRERYCEEHRYKEKETQQDKNRYYDRFKRDKESTAFYRSKAWERLREQALMRDKGLCLHCKNNRKIKVADMVDHIIPIKVDPSLKLKLENLQSLCNPCHNRKTAEDKKKYG

Columns and labels:
[1] = test system: antibody-Protein A/G complex; assay: Effect of heparin on antibody-Protein A/G complex (magnetic beads, SDS gel); format: binding; conditions: 0.125, 0.25, 0.5 and 1 mg/ml Heparin, 30 minutes, room temperature, Sodium Salt
From the text: The numbers on the top indicate added heparin quantity in the reaction mgs/ml.
Antibody heavy and light chains that are bound to Protein A/G can be released by boiling and resolved on an SDS gel (B). Any antibody that was free in solution having been eluted or displaced by heparin from Protein A/G could be visualized without boiling (E).
To determine the effect of heparin on the formation of the antibody-Protein A/G complex, 5 mgs of immobilized and covalently cross-linked protein A/G magnetic beads were bound to 50 μgs of IgG molecules in a 50 μl reaction volume containing 1×PBST at room temperature for 30 minutes. The complex was washed 3 times using 1 ml of 1×PBST and incubated with 0.125, 0.25, 0.5 and 1 mg/ml Heparin for 30 minutes at room temperature in 25 μl total volume. The bead-bound (B) and unbound or bead elution (E) fractions were collected, SDS sample buffer (New England Biolabs, Ipswich, Mass.) was added and the samples were incubated at 95° C. for 5 minutes. Both B and E samples were resolved on tricine 10% acrylamide gel and stained for protein.

[2] = test system: Nt.CviPII-Protein A fusion; assay: Inhibition of nicking activity of Nt.CviPII-Protein A fusion by heparin sodium salt; format: biochemical; conditions: 2.5 units Nt.CviPII-Protein A, 0.5 μg pUC19, NEBuffer 2, 40 minutes 37° C.
Chain of Nt.CviPII-Protein A fusion (as listed by the source): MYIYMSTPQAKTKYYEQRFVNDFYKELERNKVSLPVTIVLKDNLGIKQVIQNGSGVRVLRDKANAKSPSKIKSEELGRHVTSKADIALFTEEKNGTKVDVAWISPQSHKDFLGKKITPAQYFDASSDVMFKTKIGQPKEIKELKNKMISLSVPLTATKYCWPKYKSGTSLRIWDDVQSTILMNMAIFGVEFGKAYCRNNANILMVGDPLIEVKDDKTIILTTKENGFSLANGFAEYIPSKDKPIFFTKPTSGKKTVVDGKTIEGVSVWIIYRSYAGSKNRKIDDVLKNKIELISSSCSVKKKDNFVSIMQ
Method: In lanes 1-9, 2.5 units of NEFP was added to 0.5 μgs of plasmid DNA in the presence of increasing amounts of heparin (0.15-10 mg/ml). Digestion was not observed when 0.3 mg heparin/ml or greater amounts are present.
To determine the effect of heparin sodium salt on the inhibition of nicking activities of Nt.CviPII-Protein A fusion, reaction tubes containing 10, 5, 2.5, 1.25, 0.62, 0.31, 0.15, and 0 mg/ml heparin, sodium salt were added to a 50 μl reaction, consisting of 5 μl 10×NEBuffer 2, 2.5 units Nt.CviPII-Protein A (as described in Example 1(B)), and 0.5 μg pUC19 DNA and incubated for 40 minutes 37° C. 10 μl of DNA loading dye mix (5×) was added to the samples and were resolved on a 10% polyacrylamide gel. The gel was stained with SYBR® Green (Molecular Probes, Eugene, Oreg.) and scanned on a Typhoon® imager (GE Healthcare Bio-Sciences, Marlborough, Mass.).

[3] = test system: DNA-Nt.CviPII-Protein A complex; assay: Gel-shift assay: dissociation of DNA-Nt.CviPII-Protein A complex by heparin; format: binding
Method: From left to right: C is a control that is DNA in the absence of a NEFP or heparin. 0 is a control in which nicking endonuclease was added to DNA in the absence of heparin. The DNA-NEFP complex (DNA-Nt.CviPII-Protein A complex) is seen as a band at the top of the lane.
To establish that the inhibitory effect of heparin, sodium salt in untethered Nt.CviPII-Protein A fusion activity was due to selective dissociation between DNA substrate and fusion enzyme, a gel-shift assay was performed. Double stranded DNA substrate containing constant amounts of Nt.CviPII binding domains (CCA, 5′[…]-F, F=fluorescein (SEQ ID NO:9)) and 3.2 μM Nt.CviPII-Protein A fusion were combined in the presence of 1×NEBuffer 2 in the absence of magnesium for 30 minutes at room temperature to enable an enzyme-substrate complex to be formed. Increasing amounts of heparin, sodium salt (0, 2.3, 4.6, […], 20, 42, 83, 166, 330 μg/ml) was added to the total 50 μl reaction volume. It was observed that a heparin concentration of greater than 0.2 mgs/ml (at least […]) enabled complete dissociation of the DNA-Nt.CviPII-Protein A complex as observed by the appearance of bands corresponding to DNA alone in a native 6% retardation gel (Thermo Fisher Scientific, Waltham, Mass.). It was concluded that Heparin causes dissociation Nt.CviPII-Protein A fusions from the bound substrate DNA (FIG. 2B).

[4] = test system: pBR322 circular double stranded DNA; assay: Nicking activity of Protein G/A-gHNH fusion on plasmid DNA (agarose gel); format: biochemical; conditions: 1 μg pBR322, NEBuffer 2 with manganese ions, 50 μl, 37° C., 1 hour
Method: The nicking activity of Protein G-HNH was compared to a second non-fused nicking endonuclease (Nt.CviPII) (2 units) in the same gel to determine a generalized and consistent cleavage profile and was also compared to a control in the lane labeled 0 containing no nicking endonuclease either fused or unfused.
Protein G/A-gHNH fusion nicking activity was tested on pBR322 circular double stranded DNA using NEBuffer 2 in which magnesium ions were replaced by the same amount of manganese ions (1 mM). 1 μg of plasmid was used with 0.03 to 2 units of Protein G/A-gHNH fusion enzyme in a two-fold serial dilutions (2, 1, 0.5, 0.25, 0.125, 0.06, 0.03 units) in a total volume of 50 μl incubated at 37° C. for 1 hour. 10 μl of DNA loading dye mix (5×) was added to the nicked DNA. The nicked DNA samples were resolved on a 1% agarose gel and visualized under UV light. DNA fragment size was estimated along with 2 log DNA ladder (New England Biolabs, Ipswich, Mass.) and positive control Nt.CviPII (2 units) of the non-fused nicking endonuclease, (New England Biolabs, Ipswich, Mass.) digested pBR322 DNA (FIG. 1B). […] A representative figure supporting this conclusion is provided in FIG. 1B for Protein G-gHNH fusions.

amount of fusion enzyme giving partial digestion of the DNA [4] [units] | Molecule | effect of heparin on antibody bound to Protein A/G beads ([1]; listed as Heparin) | effect of heparin on antibody bound to Protein A/G beads ([1]; listed as heparin) | heparin concentration giving total inhibition of nicking (no digestion) [2] [mg/mL] | heparin concentration giving total inhibition of nicking (no digestion) ([2]; listed as heparin) [mg/mL] | heparin concentration enabling complete dissociation of the DNA-Nt.CviPII-Protein A complex ([3]; 3.2 μM Nt.CviPII-Protein A, fluorescein dsDNA, NEBuffer 2 without magnesium, room temperature) | heparin concentration at which NEFP is released entirely from the DNA ([3]; FIG. 2B legend, buffer without magnesium ions) [mg/mL]
– | Heparin Sodium Salt | cannot dissociate Protein A/G-antibody reaction | no elution or displacement of antibody occurred | 0.15 to 0.31 | ≥ 0.3 | greater than 0.2 mgs/ml | > 4.6
0.03 | B1 | – | – | – | – | – | –
